This is an account of results in patent US20230295285A1, “METHODS OF REVERSING CACHEXIA AND PROLONGING SURVIVAL COMPRISING ADMINISTERING A GDF15 MODULATOR AND AN ANTI-CANCER AGENT” (AVEO Pharmaceuticals, Inc., priority 2014, published 2023).

Read-outs that look alike come from different tables or passages of the source.

What all share (type): in vivo
The test system of data set [1] is GDF15. Kind of data set: Survival and cachexia in mice bearing LNCaP prostate xenograft, anti-GDF15 antibody plus tivozanib. The settings on record: LNCaP xenograft NCR Nude mice. On the procedure: LNCaP cells were grown in culture at 37° C. in an atmosphere containing 5% CO2, using RPMI-1640 Medium (ATCC® 30-2001™) containing 10% FBS. Cells were inoculated subcutaneously into the flank of 8-week old female NCR Nude mice with 5×10^6 cells per mouse in 50% matrigel. When tumor size reached 500 mm^3, the mice were randomized into three groups of ten mice each. Each group received one of the following treatments: (1) murine immunoglobulin G (20 mpk) and vehicle (Control); (2) murine anti-GDF15 antibody 14F11 (20 mpk) and tivozanib (5 mpk); or (3) murine immunoglobulin G (20 mpk) and tivozanib (5 mpk). Antibodies were administered every 3 days by intra-peritoneal injection, tivozanib and vehicle control was administered daily by oral gavage. Body weight and tumor size were measured daily. Mice were evaluated daily and if any of the following criteria were achieved, animals were sacrificed: a) tumor size larger than 2,000 mm^3; b) body weight loss greater than 20%; c) moribund.
In the absence of GDF15 inhibition, 70% of the mice die due to cachexia over a period of 30 days, even in the presence of anti-cancer treatment.

Data set [2] concerns the target T1, GDF15 (Mus musculus, UniProt Q9Z0J7).
T1 construct: Naive non-tumor-bearing, 8-week old, female, ICR-Scid mice; from tissue; host or cells: whole animal: ICR-Scid mice (endogenous circulating GDF15)
T1 sequence (Q9Z0J7 189-303): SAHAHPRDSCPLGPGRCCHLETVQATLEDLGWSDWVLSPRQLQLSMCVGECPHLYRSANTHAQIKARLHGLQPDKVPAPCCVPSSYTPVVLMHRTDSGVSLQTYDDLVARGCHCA
The following applies: non-tumor-bearing ICR-Scid mice; cisplatin 3 mpk i.p. twice a week + vehicle; over 9 days. The protocol:
Naive non-tumor-bearing, 8-week old, female, ICR-Scid mice were treated with cisplatin (3 mpk) twice a week by intra-peritoneal injection. Body weight was measured daily. After 2 doses of cisplatin (day 0 of the experiment) mice were randomized into two groups of ten mice each. One group received cisplatin 3 mpk plus (1) vehicle; or cisplatin 3 mpk with (2) rabbit monoclonal antibody raised against murine anti-GDF15 antibody, R-23 twice a week (20 mpk) by intra-peritoneal injection. In the absence of GDF15 inhibition, 80% of the mice die due to cachexia caused by the cisplatin agent over a period of 9 days.

Data set [3] deals with T1, GDF15. The settings on record: ICR-Scid mice. On the procedure:
Naive non-tumor-bearing, 8-week old, female, ICR-Scid mice were treated with carboplatin (60 mpk) by intra-peritoneal injection on Day 0 and Day 3 of this experiment. On Day 2, after mice experience 8% body weight loss, mice were randomized into two groups of ten mice each. One group received carboplatin (60 mpk) plus (1) vehicle or carboplatin (60 mpk) plus (2) rabbit monoclonal antibody raised against murine anti-GDF15 antibody, R-23 (20 mpk) by intra-peritoneal injection on Day 2 and Day 4. In the absence of GDF15 inhibition, 80% of the mice died due to cachexia caused by the carboplatin agent over a period of 8 days.

The target in data set [4] is T1, GDF15. The settings on record: ICR-Scid mice. The protocol:
Naive non-tumor-bearing, 8-week old, female, ICR-Scid mice were treated daily with oxaliplatin (3 mpk) by intra-peritoneal injection. On Day 3, after mice experience 8% body weight loss, mice were randomized into two groups of ten mice each. One group received oxaliplatin (3 mpk) plus (1) vehicle; or oxaliplatin (3 mpk) plus (2) rabbit monoclonal antibody raised against murine anti-GDF15 antibody, R-23 (20 mpk). Antibody or vehicle was dosed on Day 3, 5, 7, 9 by intra-peritoneal injection. In the absence of GDF15 inhibition, 45% of the mice die due to cachexia caused by the oxaliplatin agent over a period of 10 days.
The source holds these as a separate data set.

For `COc1cc2nccc(Oc3ccc(NC(=O)Nc4cc(C)on4)c(Cl)c3)c2cc1OC` [tivozanib], the “effect on tumor growth” value in data set [1] (tivozanib 5 mpk daily oral) is recorded as “slows down tumor growth”. In addition, in data set [1] (tivozanib 5 mpk daily oral gavage + murine IgG 20 mpk, absence of GDF15 inhibition, over 30 days), the “mice die due to cachexia” value came out at 70%.

On to `N.N.[Cl][Pt][Cl]` [cisplatin], for which, in data set [2], the “mice die due to cachexia caused by cisplatin” value turned out to be 80%.

For `N.N.O=C([O-])C1(C(=O)[O-])CCC1.[Pt+2]` [carboplatin], the “mice died due to cachexia caused by carboplatin” value in data set [3] (carboplatin 60 mpk i.p. Day 0 and Day 3 + vehicle, over 8 days) worked out at 80%. The same molecule had a body weight loss in data set [3] (carboplatin 60 mpk i.p., on Day 2, before randomization) of 8%.

Regarding `O=C1[O][Pt]2([NH][C@@H]3CCCC[C@H]3[NH]2)[O]C1=O` [oxaliplatin], the “mice die due to cachexia caused by oxaliplatin” value in data set [4] (oxaliplatin 3 mpk i.p. daily + vehicle, over 10 days) is 45%. The same molecule displayed a body weight loss in data set [4] (oxaliplatin 3 mpk i.p. daily, on Day 3, before randomization) of 8%.

B1: 14F11: murine anti-GDF15 antibody; light chain SEQ ID NO: 34, heavy chain SEQ ID NO: 53 (antibody)
heavy: QVTLKESGPGILQPSQTLSLTCSFSGFSLSTYGMGVGWIRQPSGKGLEWLADIWWDDDKYYNPSLKSRLTISKDTSSNEVFLKIAIVDTADTATYYCARRGHYSAMDYWGQGTSVTVSSAKTTPPSVYPLAPGSAAQTNSMVTLGCLVKGYFPEPVTVTWNSGSLSSGVHTFPAVLQSDLYTLSSSVTVPSSTWPSETVTCNVAHPASSTKVDKKIVPRDCGCKPCICTVPEVSSVFIFPPKPKDVLTITLTPKVTCVVVDISKDDPEVQFSWFVDDVEVHTAQTQPREEQFNSTFRSVSELPIMHQDWLNGKEFKCRVNSAAFPAPIEKTISKTKGRPKAPQVYTIPPPKEQMAKDKVSLTCMITDFFPEDITVEWQWNGQPAENYKNTQPIMDTDGSYFVYSKLNVQKSNWEAGNTFTCSVLHEGLHNHHTEKSLSHSPGK
light: DIVMTQSQKFMSTSVGDRVSVTCKASQNVGTNVAWYQQKPGQSPKALIYSPSYRYSGVPDRFTGSGSGTDFTLTISNVQSEDLAEYFCQQYNSYPHTFGGGTKLEMKRADAAPTVSIFPPSSEQLTSGGASVVCFLNNFYPKDINVKWKIDGSERQNGVLNSWTDQDSKDSTYSMSSTLTLTKDEYERHNSYTCEATHKTSTSPIVKSFNRNEC
As for B1, the anti-tumor effect result in data set [1] (14F11 20 mpk + tivozanib 5 mpk, 30 day period) is reported as “effective anti-tumor treatment”. For the same molecule, the effect on cachexia entry in data set [1] (14F11 20 mpk + tivozanib 5 mpk, 30 days) is “reverses cachexia”. In addition, in data set [1] (14F11 20 mpk i.p. every 3 days + tivozanib 5 mpk daily oral, over 30 day period, FIG. 1), the sustained survival came out at 100%.
